What all share (assay type): biochemical
Assay [1] concerns MMP. The assay can be described thus: MMP inhibitory activity.
For assay [2], the target named is T1, MMP-3 (recombinant truncated stromelysin) (Homo sapiens, UniProt P08254).
T1 construct: made in house; host or cells: E. coli
The assay can be described thus: Primary Thiopeptilide MMP-3 Inhibition Assay. The following applies: for pIC50: x (n): average IC50 of n separate determinations.
Procedure: Reaction mixtures for inhibitor studies contained 1 mM Ac-Pro-Leu-Gly-S-Leu-Leu-Gly-o-ethyl thiopeptolide substrate dissolved in HEPES assay buffer pH 6.5, along with 0.5 mM 5,5'-dithio-bis-(nitrobenzoicacid), drug concentrations ranging from 0.5 nM to 5 μM and activated enzyme (10-100 ng) in a total volume of 130 μl. […] Enzyme mediated substrate hydrolysis was corrected for non-enzymatic hydrolysis of the substrate by the subtraction of values from control samples incubated in the absence of enzyme. Drug efficacy was reported as the percent inhibition of enzyme activity calculated as:
Enzyme: recombinant stromelysin expressed in E.coli and purified as described above. […] The protocols for the assay of compounds as stromelysin inhibitors was the same as that used for MMP-9 except that the assay buffer was 50 mM MES, pH 6.5 containing 150mM NaCl, 10 mM CaCl2, 0.005% Brij, and 1% DMSO.
All IC50 values are expressed as nM. […] When "x (n)" is shown, x is the erage IC50 value of n separate determinations.

Assay [3] has as its target T2, MMP-9 (Gelatinase-B, 92 kDa) (Homo sapiens, UniProt P14780).
T2 construct: from tissue; host or cells: human polymorphonuclear leukocytes from fresh whole blood (New York Blood Center), PMA-stimulated supernatant, purified
The assay can be described thus: Thiopeptilide MMP-9 Inhibition Assay. The following applies: for pIC50: x (n): average IC50 of n separate determinations. The procedure:
MMP-9 was isolated modifying the previously described procedures of Hibbs et al (J. Biol. Chem., 260, 2493-2500, 1984) and Wilhelm et al (J. Biol. Chem., 264, 17213-17221, 1989). Briefly, polymorphonuclear leukocytes (PMN) preparations were isolated as described above from 3 or more units of freshly drawn whole blood obtained from the New York Blood Center (N.Y., N.Y.). Cells were resuspended in phosphate buffered saline (PBS) containing 100 ng/ml phorbol myristate acetate (PMA) in the presence of 50 mM di-isopropylfluorophospate (DFP), 1 μg/ml leupeptin and aprotinin, and 1 mg/ml catalase for 1 hr at 37° C. Supernatants were collected by centrifugation (300×g) and the samples were frozen at -70° C. All chromatographic methods were performed at 4° C. Thawed samples were concentrated 5-fold using an Amicon chamber equipped with a YM-10 membrane. The concentrate was pressure dialyzed against 0.02M Tris-HCl, 0.1M NaCl, 1 mM CaCl2, 1 μM ZnCl2, 0.001 % Brij-35, 0.02% sodium azide (NaN3), pH 7.5 and applied to DEAE ion exchange chromatography resin which was previously equilibrated with the same buffer at a flow rate of 0.4 ml/min. The column was extensively washed with the same buffer and gelatinase was eluted as 4 ml fractions from the column with 0.02M Tris-HCl, 0.5M NaCl, 1 mM CaCl2, 1 μM ZnCl2, 0.001% Brij-35, 0.02% NaN3, pH 7.5. Gelatinase containing fractions were observed by gelatin zymography (see below), loaded onto a gelatin agarose affinity resin and washed with the same buffer. Gelatinase activity was eluted at a flow rate of 1 ml/min from the column as 1 ml fractions with 0.02M Tris-HCl, 1M NaCl, 1 mM CaCl2, 1 μmM ZnCl2, 0.001% Brij-35, 0.02% NaN3, pH 7.5 containing 10% dimethyl sulfoxide (DMSO). The fractions containing gelatinase activity were pooled and dialyzed against 0.005M Tris-HCl, 5 mM NaCl, 0.5 mM CaCl2, 0.1 μM ZnCl2, 0.001% Brij-35, pH 7.4. The protein content associated with material was determined with a micro-BCA assay (Pierce, Rockford, Ill.), lyophilized and reconstituted to a desired working concentration (100 μg/ml).
Progelatinase (10 μg/ml) isolated from human PMNs (described above) was activated with 1 mM 4-aminophenylmercuric acetate (APMA) in 50 mM Tris-HCl, 200 mM NaCl, 5 mM CaCl2, 0.001% Brij-35, pH 7.6 at 37° C. for 16 hr. The activated enzyme was dialyzed against the above buffer to remove APMA. The thiopeptolide spectrophotometric ( Weingarten, H., Feder, J., Anal. Biochem., 147, 437-440, 1985) substrate hydrolysis assay was modified to a micro-assay format. Spectrophotometric analysis of MMP-9 activity required a 1000-fold dilution of activated MMP-9 (10 ng/ml, 0.14 nM) in assay buffer comprised of 50 mM 4-(2-hydroxyethyl)1-piperazine ethane sulfonic acid (HEPES), 0.15M NaCl, 10 mM CaCl2, 0.001% Brij-35, pH 6.5 between 100 and 1000-fold for enzyme assays. Reaction mixtures for inhibitor studies contained 1 mM Ac-Pro-Leu-Gly-S-Leu-Leu-Gly-o-ethyl thiopeptolide substrate dissolved in HEPES assay buffer pH 6.5, along with 0.5 mM 5,5'-dithio-bis-(nitrobenzoicacid), drug concentrations ranging from 0.5 nM to 5 μM and activated enzyme (10-100 ng) in a total volume of 130 μl. The hydrolysis of substrate was monitored at 405 nm using an automated plate reader (Molecular Devices, Menlo Park, Calif.). Enzyme mediated substrate hydrolysis was corrected for non-enzymatic hydrolysis of the substrate by the subtraction of values from control samples incubated in the absence of enzyme. Drug efficacy was reported as the percent inhibition of enzyme activity calculated as:
(Control Values-Treated Values)/Control Values×100
Two way analysis of variance was used to determine significance between individual test groups.
All IC50 values are expressed as nM. When "I=x %" is shown, x presents the % inhibition at 5 μM. When "x (n)" is shown, x is the erage IC50 value of n separate determinations.

Structures are written as SMILES. pIC50: −log10 of the molar value. Where a name gives a salt, the structure may show the parent alone.

T2 sequence (P14780 107-707 limits assumed): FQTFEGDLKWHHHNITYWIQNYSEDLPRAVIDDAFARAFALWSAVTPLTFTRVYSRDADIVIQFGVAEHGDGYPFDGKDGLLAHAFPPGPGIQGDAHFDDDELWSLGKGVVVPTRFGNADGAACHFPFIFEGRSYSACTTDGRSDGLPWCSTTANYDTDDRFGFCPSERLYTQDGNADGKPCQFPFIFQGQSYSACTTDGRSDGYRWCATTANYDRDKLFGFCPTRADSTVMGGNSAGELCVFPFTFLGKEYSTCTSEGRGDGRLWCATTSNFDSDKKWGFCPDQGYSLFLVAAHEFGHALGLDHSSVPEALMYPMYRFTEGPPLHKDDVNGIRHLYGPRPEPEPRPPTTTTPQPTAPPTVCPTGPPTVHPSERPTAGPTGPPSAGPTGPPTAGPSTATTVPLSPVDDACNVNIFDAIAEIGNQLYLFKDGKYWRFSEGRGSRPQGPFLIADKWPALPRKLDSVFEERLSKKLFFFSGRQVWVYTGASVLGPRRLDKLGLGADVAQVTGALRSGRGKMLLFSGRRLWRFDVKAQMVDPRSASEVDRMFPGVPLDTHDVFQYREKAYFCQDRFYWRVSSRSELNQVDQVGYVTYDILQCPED
T1 sequence (P08254 100-274 limits assumed): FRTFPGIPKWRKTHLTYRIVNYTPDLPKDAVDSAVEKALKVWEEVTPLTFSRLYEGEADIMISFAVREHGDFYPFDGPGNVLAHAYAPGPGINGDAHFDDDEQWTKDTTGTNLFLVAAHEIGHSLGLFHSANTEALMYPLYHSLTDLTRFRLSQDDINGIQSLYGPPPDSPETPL

Consider `CC(C)CC(CC(=O)c1ccc(-c2ccccc2)cc1)C(=O)O` (stereo not drawn) [Example 13, [1,1'-Biphenyl]-4-butanoic acid, α-(2-methylpropyl)-γ-oxo-], for which, in assay [1], the “MMP inhibitory activity / potency in words” value is listed as “low potency”.
Turning to `O=C(O)[C@@H]1CC[C@H]1C(=O)c1ccc(-c2ccc(Cl)cc2)cc1` (relative stereo) [Example 206, Cyclobutanecarboxylic acid, 2-[(4'-chloro[1,1'-biphenyl]-4-yl)carbonyl]-, trans-], the “MMP inhibitory activity / potency in words” value in assay [1] is “much more active”.
As usually defined, the pIC50 is the negative decadic logarithm of the IC50, by convention in mol/L. On to `CC(C)CC(CC(O)c1ccc(-c2ccc(Cl)cc2)cc1)C(=O)O` (stereo not drawn) [Example 27, [1,1'-Biphenyl]-4-butanoic acid, 4'-chloro-γ-hydroxy-α-(2-methylpropyl)-], for which, in assay [2], the pIC50 is 5.30.
Usually inhibition stands for the relative decrease from the control value, in per cent. `CCN(CC)CCC(CC(=O)c1ccc(-c2ccc(Cl)cc2)cc1)C(=O)O` (stereo not drawn) [Example 191, [1,1'-Biphenyl]-4-butanoic acid, 4'-chloro-α-[2-(diethylamino)ethyl]-γ-oxo-,hydrochloride]: the inhibition at 5 µM in assay [3] (at 5 μM, read-out: MMP-9 Thiopeptilide % inhibition (I)) came to 31%.
On to `O=C(C[C@@H](C[S+]([O-])c1ccccc1)C(=O)O)c1ccc(-c2ccc(Cl)cc2)cc1` (stereo partly drawn) [Example 126, [1,1'-Biphenyl]-4-butanoic acid, 4'-chloro-γ-oxo-α-[(phenylsulfmyl)methyl]-,stereoisomer], for which the “MMP-3 Thiopeptilide % inhibition (I)” value in assay [2] (at 5 μM) is 17%.
As for `O=C(O)[C@@H]1[C@@H](Cc2ccccc2)CC[C@H]1C(=O)c1ccc(-c2ccc(Cl)cc2)cc1` (relative stereo) [Example 227, Cyclopentanecarboxylic acid, 2-[(4'-chloro [1,1'-biphenyl]-4-yl)carbonyl]-5-(phenylmethyl)-, (1α,2β,5β)-], the pIC50 in assay [2] is 6.85.
Take `O=C(O)[C@@H]1[C@H](Sc2ccc(Cl)cc2)CC[C@H]1C(=O)c1ccc(-c2ccc(Cl)cc2)cc1` (relative stereo) [Example 223, Cyclopentanecarboxylic acid, 2-[(4'-chloro[1,1'-biphenyl]-4-yl)carbonyl]-5-[(4-chlorophenyl)thio]-, (1α,2β,5α)-]: the figures for the negative-log IC50 (pIC50) in assay [2] and in assay [3] were 6.47 and 6.15, respectively.
In the case of `CCOc1ccc(-c2ccc(C(=O)[C@@H]3CC[C@@H](Sc4ccccc4)[C@H]3C(=O)O)cc2)cc1` (relative stereo) [Example 225, Cyclopentanecarboxylic acid, 2-[(4'-ethoxy[1,1'-biphenyl]-4-yl)carbonyl]-5-(phenylthio)-, (1α,2β,5α)-], the negative-log IC50 (pIC50) in assay [2] was 7.18.
As to `O=C(CC(CCN1C(=O)c2ccccc2C1=O)C(=O)O)c1ccc(-c2ccc(Cl)cc2)cc1` (stereo not drawn) [Example 194, 2H-Isoindole-2-butanoic acid, α-[2-(4'-chloro[1,1'-biphenyl]-4-yl)-2-oxoethyl]-1,3-dihydro-1,3-dioxo-], the pIC50 in assay [2] was 7.42; in assay [3], 8.74.
For `CCOc1ccc(-c2ccc(C(=O)[C@@H]3CC[C@H](Sc4ccccc4)[C@H]3C(=O)O)cc2)cc1` (relative stereo) [Example 224, Cyclopentanecarboxylic acid, 2-[(4'-ethoxy[1,1'-biphenyl]-4-yl)carbonyl]-5-(phenylthio)-, (1α,2β,5β)-], the pIC50 in assay [2] is 7.44.
With `O=C(CC(CCCc1ccccc1)C(=O)O)c1ccc(-c2ccccc2)cc1` (stereo not drawn) [Example 91, [1,1'-Biphenyl]-4-butanoic acid, γ-oxo-α-(3-phenylpropyl)-], the “MMP inhibitory activity / potency in words” value in assay [1] is on record as “low potency”. In assay [3], this compound had a pIC50 of 5.55.
Take `O=C(O)[C@@H]1[C@@H](Sc2ccc(Cl)cc2)CC[C@H]1C(=O)c1ccc(-c2ccc(Cl)cc2)cc1` (relative stereo) [Example 222, Cyclopentanecarboxylic acid, 2-[(4'-chloro [1,1'-biphenyl]-4-yl)carbonyl]-5-[(4-chlorophenyl)thio]-, (1α,2β,5β)-]: the pIC50 in assay [2] was 7.10; in assay [3] it was 7.49.
Take `CCOc1ccc(-c2ccc(C(=O)[C@@H]3CC[C@H](Cc4ccccc4)[C@H]3C(=O)O)cc2)cc1` (relative stereo) [Example 226, Cyclopentanecarboxylic acid, 2-[(4'-ethoxy[1,1'-biphenyl]-4-yl)carbonyl]-5-(phenylmethyl)-, (1α,2β,5β)-]: the pIC50 in assay [2] was 7.01.
The compound `O=C(O)[C@@H]1[C@@H](C(=O)c2ccc(-c3ccc(Cl)cc3)cc2)CC[C@H]1Sc1ccccc1` (single isomer, unassigned) [Example 212, Cyclopentanecarboxylic acid, 2-[(4'-chloro[,1'-biphenyl]-4-yl)carbonyl]-5-(phenylthio)-, [1R-(1α,2β,5β)]-] showed a pIC50 in assay [3] of 6.19.
On to `CC(C)CC(CC(O)c1ccc(-c2ccc(Cl)cc2)cc1)C(=O)O` (stereo not drawn) [Example 26, [1,1'-Biphenyl]-4-butanoic acid, 4'-chloro-γ-hydroxy-α-(2-methylpropyl)-], for which the figures for the pIC50 in assay [2] and in assay [3] were 5.59 and 5.62, respectively.
The compound `O=C(CC(Cc1ccccc1)C(=O)O)c1ccc(-c2ccc(Cl)cc2)cc1` (stereo not drawn) [Example 105, [1,1'-Biphenyl]-4-butanoic acid, 4'-chloro-γ-oxo-α-(phenylmethyl)-] showed a pIC50 in assay [3] of 6.05.
For `COC(=O)c1ccccc1S[C@@H]1CC[C@H](C(=O)c2ccc(-c3ccc(Cl)cc3)cc2)[C@H]1C(=O)O` (relative stereo) [Example 219, Benzoic acid, 2-[[2-carboxy-3-[(4'-chloro[1,1'-biphenyl]-4-yl)carbonyl]cyclopentyl]thio]-, 1-methyl ester, (1α,2β,3α)-], the pIC50 in assay [2] was 7.48; in assay [3], 6.97.
With `CC(=O)SC(CC(=O)c1ccc(Oc2ccc(Cl)cc2)cc1)C(=O)O` (stereo not drawn) [Example 183, Benzenebutanoic acid, α-(acetylthio)-4-(4-chlorophenoxy)-γ-oxo-, reference compound], the “MMP inhibitory activity / potency in words” value in assay [1] was “very low potency”.
As for `O=C(CC(C(=O)O)N1CCSCC1)c1ccc(-c2ccc(Cl)cc2)cc1` (stereo not drawn) [Example 184, 4-Thiomorpholineacetic acid, α-[2-(4'-chloro[1,1'-biphenyl]-4-yl)-2-oxoethyl]-, hydrochloride], the inhibition at 5 µM in assay [2] (at 5 μM, read-out: MMP-3 Thiopeptilide % inhibition (I)) stood at 19%.
As for `Cc1cc(C)cc(SCC(CC(=O)c2ccc(-c3ccc(Cl)cc3)cc2)C(=O)O)c1` (stereo not drawn) [Example 165, [1,1'-Biphenyl]-4-butanoic acid, 4'-chloro-α-[[(3,5-dimethylphenyl)thio]methyl]-γ-oxo-], the pIC50 in assay [2] was 5.80.

The values are drawn from patent publication US5886022A, “Substituted cycloalkanecarboxylic acid derivatives as matrix metalloprotease inhibitors” (priority 1997, dated 1999).
